{"source": "ChEMBL document CHEMBL1201862", "about": "“PubChem BioAssay data set” (2004)", "assay_in_all_cases": "growth of human tumour cells (NCI), 48 h", "key": {"[1]": {"tested_on": "786-0"}, "[2]": {"tested_on": "A498"}, "[3]": {"tested_on": "A549"}, "[4]": {"tested_on": "ACHN"}, "[5]": {"tested_on": "BT-549"}, "[6]": {"tested_on": "CAKI-1"}, "[7]": {"tested_on": "CCRF-CEM"}, "[8]": {"tested_on": "COLO 205"}, "[9]": {"tested_on": "DU-145"}, "[10]": {"tested_on": "EKVX"}, "[11]": {"tested_on": "HCC 2998"}, "[12]": {"tested_on": "HCT-116"}, "[13]": {"tested_on": "HCT-15"}, "[14]": {"tested_on": "HL-60"}, "[15]": {"tested_on": "HOP-62"}, "[16]": {"tested_on": "HOP-92"}, "[17]": {"tested_on": "HT-29"}, "[18]": {"tested_on": "Hs-578T"}, "[19]": {"tested_on": "IGROV-1"}, "[20]": {"tested_on": "K562"}, "[21]": {"tested_on": "KM12"}, "[22]": {"tested_on": "LOX IMVI"}, "[23]": {"tested_on": "M14"}, "[24]": {"tested_on": "MCF7"}, "[25]": {"tested_on": "MDA-MB-231"}, "[26]": {"tested_on": "MDA-MB-435"}, "[27]": {"tested_on": "MDA-N"}, "[28]": {"tested_on": "MOLT-4"}, "[29]": {"tested_on": "Malme-3M"}, "[30]": {"tested_on": "NCI-H226"}, "[31]": {"tested_on": "NCI-H23"}, "[32]": {"tested_on": "NCI-H460"}, "[33]": {"tested_on": "NCI-H522"}, "[34]": {"tested_on": "NCI/ADR-RES"}, "[35]": {"tested_on": "OVCAR-3"}, "[36]": {"tested_on": "OVCAR-4"}, "[37]": {"tested_on": "OVCAR-5"}, "[38]": {"tested_on": "OVCAR-8"}, "[39]": {"tested_on": "PC-3"}, "[40]": {"tested_on": "RPMI-8226"}, "[41]": {"tested_on": "RXF 393"}, "[42]": {"tested_on": "SF-268"}, "[43]": {"tested_on": "SF-295"}, "[44]": {"tested_on": "SF-539"}, "[45]": {"tested_on": "SK-MEL-28"}, "[46]": {"tested_on": "SK-MEL-2"}, "[47]": {"tested_on": "SK-MEL-5"}, "[48]": {"tested_on": "SN12C"}, "[49]": {"tested_on": "SNB-19"}, "[50]": {"tested_on": "SNB-75"}, "[51]": {"tested_on": "SR"}, "[52]": {"tested_on": "SW-620"}, "[53]": {"tested_on": "T47D"}, "[54]": {"tested_on": "TK-10"}, "[55]": {"tested_on": "U-251"}, "[56]": {"tested_on": "UACC-257"}, "[57]": {"tested_on": "UACC-62"}, "[58]": {"tested_on": "UO-31"}}, "note": "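The compound was tested at five concentrations on cells cultured in 96-well plates, with a 48-hour exposure period. Abbreviation: GI50, concentration required for 50% inhibition of growth.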 The source made the active and inactive calls. Cut-off read from the data, not from the text of the source: active = GI50 up to about 1.1 µM and inactive = higher."}
{"smiles": "COc1cc2ccccc2oc1=O", "values": [{"measurement": "GI50", "setting": "[1]", "value": "> 100 µM (inactive)"}, {"measurement": "GI50", "setting": "[2]", "value": "> 100 µM (inactive)"}, {"measurement": "GI50", "setting": "[3]", "value": "> 100 µM (inactive)"}, {"measurement": "GI50", "setting": "[4]", "value": "63 µM (inactive)"}, {"measurement": "GI50", "setting": "[5]", "value": "19.8 µM (inactive)"}, {"measurement": "GI50", "setting": "[6]", "value": "99.3 µM (inactive)"}, {"measurement": "GI50", "setting": "[7]", "value": "41.9 µM (inactive)"}, {"measurement": "GI50", "setting": "[8]", "value": "> 100 µM (inactive)"}, {"measurement": "GI50", "setting": "[9]", "value": "> 100 µM (inactive)"}, {"measurement": "GI50", "setting": "[10]", "value": "51.1 µM (inactive)"}, {"measurement": "GI50", "setting": "[11]", "value": "78.2 µM (inactive)"}, {"measurement": "GI50", "setting": "[12]", "value": "> 100 µM (inactive)"}, {"measurement": "GI50", "setting": "[13]", "value": "> 100", "unit": "µM"}, {"measurement": "GI50", "setting": "[14]", "value": "50.8 µM (inactive)"}, {"measurement": "GI50", "setting": "[15]", "value": "59.8 µM (inactive)"}, {"measurement": "GI50", "setting": "[16]", "value": "40 µM (inactive)"}, {"measurement": "GI50", "setting": "[17]", "value": "> 100 µM (inactive)"}, {"measurement": "GI50", "setting": "[18]", "value": "45.9 µM (inactive)"}, {"measurement": "GI50", "setting": "[19]", "value": "> 100 µM (inactive)"}, {"measurement": "GI50", "setting": "[20]", "value": "> 100 µM (inactive)"}, {"measurement": "GI50", "setting": "[21]", "value": "> 100 µM (inactive)"}, {"measurement": "GI50", "setting": "[22]", "value": "> 100 µM (inactive)"}, {"measurement": "GI50", "setting": "[23]", "value": "81.7 µM (inactive)"}, {"measurement": "GI50", "setting": "[24]", "value": "54.8 µM (inactive)"}, {"measurement": "GI50", "setting": "[25]", "value": "> 100 µM (inactive)"}, {"measurement": "GI50", "setting": "[26]", "value": "> 100 µM (inactive)"}, {"measurement": "GI50", "setting": "[27]", "value": "> 100 µM (inactive)"}, {"measurement": "GI50", "setting": "[28]", "value": "67.3 µM (inactive)"}, {"measurement": "GI50", "setting": "[29]", "value": "99.1 µM (inactive)"}, {"measurement": "GI50", "setting": "[30]", "value": "> 100 µM (inactive)"}, {"measurement": "GI50", "setting": "[31]", "value": "94.2 µM (inactive)"}, {"measurement": "GI50", "setting": "[32]", "value": "45.5 µM (inactive)"}, {"measurement": "GI50", "setting": "[33]", "value": "32.6 µM (inactive)"}, {"measurement": "GI50", "setting": "[34]", "value": "97.5 µM (inactive)"}, {"measurement": "GI50", "setting": "[35]", "value": "74.5 µM (inactive)"}, {"measurement": "GI50", "setting": "[36]", "value": "> 100 µM (inactive)"}, {"measurement": "GI50", "setting": "[37]", "value": "> 100 µM (inactive)"}, {"measurement": "GI50", "setting": "[38]", "value": "> 100 µM (inactive)"}, {"measurement": "GI50", "setting": "[39]", "value": "> 100 µM (inactive)"}, {"measurement": "GI50", "setting": "[40]", "value": "> 100 µM (inactive)"}, {"measurement": "GI50", "setting": "[41]", "value": "330 nM (active)"}, {"measurement": "GI50", "setting": "[42]", "value": "51.6 µM (inactive)"}, {"measurement": "GI50", "setting": "[43]", "value": "> 100 µM (inactive)"}, {"measurement": "GI50", "setting": "[44]", "value": "> 100 µM (inactive)"}, {"measurement": "GI50", "setting": "[45]", "value": "84.5 µM (inactive)"}, {"measurement": "GI50", "setting": "[46]", "value": "23.3 µM (inactive)"}, {"measurement": "GI50", "setting": "[47]", "value": "> 100 µM (inactive)"}, {"measurement": "GI50", "setting": "[48]", "value": "> 100 µM (inactive)"}, {"measurement": "GI50", "setting": "[49]", "value": "> 100 µM (inactive)"}, {"measurement": "GI50", "setting": "[50]", "value": "57.3 µM (inactive)"}, {"measurement": "GI50", "setting": "[51]", "value": "> 100 µM (inactive)"}, {"measurement": "GI50", "setting": "[52]", "value": "> 100 µM (inactive)"}, {"measurement": "GI50", "setting": "[53]", "value": "1.85 µM (inactive)"}, {"measurement": "GI50", "setting": "[54]", "value": "77.6 µM (inactive)"}, {"measurement": "GI50", "setting": "[55]", "value": "> 100 µM (inactive)"}, {"measurement": "GI50", "setting": "[56]", "value": "> 100 µM (inactive)"}, {"measurement": "GI50", "setting": "[57]", "value": "24 µM (inactive)"}, {"measurement": "GI50", "setting": "[58]", "value": "39 µM (inactive)"}]}
